“Also recorded” adds a separate entry of the source.
What was measured:
[1] = tested on: dermal papilla cells (HDPC); assay: Protection against DKK1-induced death of dermal papilla cells (CCK-8); format: cell-based, human; conditions: 30 or 100 ppm for 1 day, then DKK1, FIG. 10
Method: (§1) Specifically, HDPC were treated with Meloside A or L at concentrations of 30 or 100 ppm, respectively, for 1 day, and then cell death was induced with DKK1 (dickkopf WNT signaling pathway inhibitor 1). For comparison, HDPC that were neither treated with Meloside A or L nor with DHT were used as the negative control group. HDPC treated with DHT but without Meloside A and L were used as the untreated group. HDPC treated with 100 μM Minoxidil or 5 mM NAC followed by DHT treatment were used as the positive control group.
(§2) CCK-8 (Cell Counting Kit-8, Dojindo, EU) reagent was added to the HDPC according to the manufacturer's protocol, and absorbance was measured at a wavelength of 450 nm using a microplate reader (BioTeK, USA) to confirm the cell viability of dermal papilla cells because of Meloside treatment, compared to the negative control group (treated with DMEM instead of Meloside A or L).

[2] = tested on: Vascular Endothelial Growth Factor (VEGF); assay: VEGF expression in HDPC supernatant (ELISA); format: cell-based, human; conditions: 30 or 100 ppm, 1 day, FIG. 8
Method: HDPC were treated with Meloside A or L at concentrations of 30 or 100 ppm, respectively, for 1 day to obtain the cell supernatant. For comparison, HDPC that were not treated with either Meloside A or L were used as the negative control group, and HDPC treated with 100 μM Minoxidil were used as the positive control group.
The increase or decrease in VEGF expression level in the obtained cell supernatant was confirmed through an Enzyme-Linked Immunosorbent Assay (ELISA) method, and the results are shown in FIG. 8.

[3] = tested on: human dermal papilla cells (HDPC); assay: Cytotoxicity / growth-proliferation of dermal papilla cells (CCK-8); format: cell-based; conditions: 10, 30, 50, 100 ppm, 1 day, CCK-8, 450 nm, FIG. 1
Method: (§3) Human hair dermal papilla cells (HDPC), used in the test examples described below, were cultured in Dulbecco's Modified Eagle Medium (DMEM, WELGENE) supplemented with 10% Fetal Bovine Serum (FBS, WELGENE) and 1% antibiotics (Penicillin-Streptomycin, WELGENE) as the culture medium, in an incubator at 37° C., 5% CO2, and humid conditions.
(§4) Specifically, after treating human dermal papilla cells (HDPC) or human outer root sheath cells (ORS) with Meloside A or Meloside L at concentrations of 10, 30, 50, and 100 ppm for 1 day, CCK-8 (Cell Counting Kit-8, Dojindo, EU) reagent was added to the treated HDPC according to the manufacturer's protocol. Absorbance was then measured at a wavelength of 450 nm using a microplate reader (BioTeK, USA), and the extent of HDPC growth/proliferation by Meloside treatment was compared and confirmed against the negative control group (treated with DMEM instead of Meloside A or L).

IL-6 (Interleukin 6) = assay: IL-6 expression in DHT-treated HDPC supernatant (ELISA); format: cell-based, human; conditions: HDPC treated with 100 μg/mL DHT, 30 or 100 ppm, 1 day, FIG. 11
Method: Specifically, the following groups were prepared: (i) a negative control group, where neither Dihydrotestosterone (DHT) nor Meloside A and L were treated on human dermal papilla cells (HDPC); (ii) an untreated group, where 100 μg/mL DHT was treated on HDPC, but neither Meloside A nor L was treated; (iii) a positive control group, where HDPC were treated with 100 μM Minoxidil or 20 μM Dexamethasone (DEX); and (iv) a treated group, where HDPC were first treated with 100 μg/mL DHT to increase IL-6 expression, and then treated with Meloside A or L at concentrations of 30 or 100 ppm, respectively, for 1 day. After preparation, the cell supernatants from HDPC of (i) to (iv) were obtained, and the increase or decrease in the expression level of IL-6 (Interleukin 6) was confirmed using an Enzyme-Linked Immunosorbent Assay (ELISA). For the analysis of expression patterns for each sample, normalization was performed based on a standard sample of IL-6, and the results are shown in FIG. 11.

Androgen Receptor (AR) = assay: Androgen receptor expression in DHT-treated HDPC (Western blot); format: cell-based, human; conditions: HDPC pre-treated with 1 μM DHT, 30 or 100 ppm, 1 day, FIGS. 3 and 4
Method: as §3
Specifically, the following groups were prepared: (i) a negative control group, where neither Dihydrotestosterone (DHT) nor Meloside A and L were treated on human dermal papilla cells (HDPC); (ii) an untreated group, where 1 μM DHT was treated on HDPC, but neither Meloside A nor L was treated; (iii) a positive control group, where 1 μM DHT was treated on HDPC, followed by treatment with 100 μM Minoxidil instead of Meloside A and L; and (iv) a treated group, where HDPC were first treated with 1 μM DHT to activate androgen receptors, and then treated with Meloside A or L at concentrations of 30 or 100 ppm, respectively, for 1 day. After preparation, the HDPC from (i) to (iv) were lysed, and the increase or decrease in the expression level of Androgen Receptor (AR) was confirmed using the Western blot technique. Here, for the analysis of relative expression patterns for each sample, the expression level was normalized based on the expression level of Actin. […]

[4] = tested on: dermal papilla cells (HDPC); assay: Protection against DHT-induced death of dermal papilla cells (CCK-8); format: cell-based, human; conditions: 30 or 100 ppm for 1 day, then DHT, FIG. 9
Method: as §1, with “Dihydrotestosterone (DHT),” for “DKK1 (dickkopf WNT signaling pathway inhibitor 1).”, “NAC (N-acetyl cysteine)” for “NAC”
as §2

[5] = tested on: human outer root sheath cells (ORS); assay: Cytotoxicity / growth-proliferation of outer root sheath cells (CCK-8); format: cell-based; conditions: 10, 30, 50, 100 ppm, 1 day, CCK-8, 450 nm, FIG. 2
Method: Human Hair Outer Root Sheath Cells (ORS), used in the test examples described below, were cultured in culture plates coated with Poly-L-Lysine, using Mesenchymal Stem Cell Medium (MSCM, ScienCell) supplemented with 5% Fetal Bovine Serum (FBS, ScienCell), 1% Mesenchymal stem cell growth supplement (MSCGS, ScienCell), and antibiotics (Penicillin-Streptomycin, ScienCell) as the culture medium, in an incubator at 37° C., 5% CO2, and humid conditions.
as §4

Row | Compound | cell protective effect against DKK1 (cell viability) [1] | VEGF expression level [2] | cell growth/proliferation (cytotoxicity) of HDPC vs negative control [3] | IL-6 expression level (IL-6 (Interleukin 6)) | androgen receptor (AR) expression level, normalized to Actin (Androgen Receptor (AR)) | cell protective effect against DHT (cell viability) [4] | cell growth/proliferation (cytotoxicity) of ORS vs negative control [5]
1 | O=c1cc(-c2ccc(O)cc2)oc2cc(O)c([C@@H]3O[C@H](CO)[C@@H](O)[C@H](O)[C@H]3O[C@@H]3O[C@H](CO)[C@@H](O)[C@H](O)[C@H]3O)c(O)c12 [Meloside A, isovitexin 2″-O-glucoside] | cell protective effect against DKK1 was confirmed | increase in VEGF expression; also recorded: superior to that of Meloside L | comparable levels of cell growth/proliferation to the negative control group | decrease in IL-6 expression | concentration-dependent; also recorded: superior effect in decreasing the expression level of androgen receptor (AR) compared to Meloside L | cell protective effect against DHT was confirmed | comparable levels of cell growth/proliferation to the negative control group
2 | O=c1cc(-c2ccc(O)c(O)c2)oc2cc(O)c([C@@H]3O[C@H](CO)[C@@H](O)[C@H](O)[C@H]3O[C@@H]3O[C@H](CO)[C@@H](O)[C@H](O)[C@H]3O)c(O)c12 [Meloside L, isoorientin 2″-O-glucoside] | no cell protective effect against DKK1 was observed | increase in VEGF expression | comparable levels of cell growth/proliferation to the negative control group | no IL-6 expression reduction effect was observed | concentration-dependent | no cell protective effect against DHT was observed | comparable levels of cell growth/proliferation to the negative control group

From patent US20260232709A1, “COMPOSITION COMPRISING MELOSIDE FOR ALLEVIATING HAIR LOSS AND IMPROVING HAIR GROWTH” (MORECHEM CO., LTD., priority 2024, published 2026)
